Results reported in ChEMBL document CHEMBL1124201, “Optimizing of 2,3-diarylindenes as fluorescent estrogens: variation of the acceptor group, ortho substitution of the 2-ring, and C-1 methylation” (J Med Chem, 1988).

Target: Estrogen receptor (Rattus norvegicus) (UniProt P06211+Q62986)
Test: Displacement of [3H]estradiol from estrogen receptor of rat uterine cytosol
Type: protein assay

Row | RBA [%] | SMILES
1 | 12 | CC1C(c2ccccc2)=C(c2ccccc2)c2ccc(O)cc21 (stereo unspecified)
2 | 1 | N#Cc1ccc(C2=C(c3ccc(O)cc3)c3ccc(O)cc3C2)cc1
3 | 30 | Cc1ccccc1C1=C(c2ccc(O)cc2)c2ccc(O)cc2C1
4 | 28 | Oc1ccc(C2=C(c3ccccc3)c3ccc(O)cc3C2)cc1
5 | 0.46 | O=[N+]([O-])c1ccc(C2=C(c3ccccc3)c3ccc(O)cc3C2)cc1
6 | 0.69 | O=[N+]([O-])c1ccc(C2=C(c3ccc(O)cc3)c3ccc(O)cc3C2)cc1
7 | 4.7 | Oc1ccc(C2=C(c3ccccc3)Cc3cc(O)ccc32)cc1
8 | 0.76 | Oc1ccc(C2=C(c3ccc(Br)cc3)Cc3cc(O)ccc32)cc1
9 | 0.6 | O=[N+]([O-])c1cccc(C2=C(c3ccc(O)cc3)c3ccc(O)cc3C2)c1
10 | 0.05 | Oc1ccc(C2=C(c3cccnc3)Cc3cc(O)ccc32)cc1
11 | 38 | Oc1ccc(C2=C(c3ccccc3C(F)(F)F)Cc3cc(O)ccc32)cc1
